{"source": "patent US11590110B2", "about": "“Compositions and methods for reactivating latent immunodeficiency virus using a GSK-3 inhibitor” (priority 2017, dated 2023)", "key": {"patient CD4+ T cells": {"tested_on": "patient CD4+ T cells", "test": "Example 7: viability of patient CD4+ T cells, Cell-titer blue", "conditions": "48 h"}, "[1]": {"tested_on": "AKT/mTOR pathway in CD4+ T cells", "test": "Example 5: RNA and protein expression profiling with nanoString", "format": "cell-based, human", "conditions": "1 μM", "experimental": "Quantitative RNA and protein expression data were generated using the nCounter Vantage 3D Solid Tumor Assay and the nCounter SPRINT profiler (NanoString Technologies), comprising 770 RNA and 30 protein targets including positive and negative controls. 1-3 million negatively selected primary CD4^+ T cells purified from HIV-positive donors on suppressive ART, as described above, were treated with 1 μM tideglusib or left untreated (DMSO control). […]. For RNA samples, an additional RNA purification step (Qiagen miRNeasy Mini Kit) was necessary to ensure an appropriate sample input for the nCounter assay. A total of at least 30 ng RNA was used for each sample. Otherwise, samples were processed according to the manufacturer's instructions. RNA and protein expression values were normalized and analyzed using the nSolver Analysis Software 4.0 and the add-on Advanced Analysis Software 2.0.115 (NanoString Technologies). Normalization genes for each sample were automatically selected by the software based on the geNorm algorithm (ref vandesompele). Biological replicates were then grouped according to treatment and the differential expression of each analyte-type (RNA or protein target) was determined in comparison to the untreated condition by considering inter-donor differences as confounding variables. Based on the differential expression of each gene, pre-defined gene sets by nanoString, representing different pathways included in this assay, were analyzed by calculating global significance scores for each gene set within each treatment, as follows: […]"}, "NF-κB (p65)": {"tested_on": "NF-κB (p65)", "test": "Example 5: NF-κB p65 nuclear translocation, western blot of nuclear extracts", "format": "cell-based, human", "conditions": "1 μM tideglusib or anti-CD3/CD28 coated beads; CD4+ T cells of three HIV-negative participants", "description": "Nuclear extracts were prepared from purified CD4^+ T cells using the NE-PER Nuclear and Cytoplasmic Extraction reagent supplemented with protease inhibitor cocktail, as specified by the manufacturers protocol (Thermoscientific, catalogue no. 78833). Protein concentration of extracts was determined by Biorad protein assay (Biorad, catalogue no. 5000001). Nuclear extracts were resolved by electrophoresis on a 10% SDS-polyacrylamide gel using 15 μg of protein per condition and then transferred to PVDF membrane. Membranes were immunoblotted with primary antibodies for p65 (Cell signal Tech., catalogue no. 8242) and TATA binding protein (Abcam, catalogue no. ab63766); primary antibodies were diluted at 1:1000. Detection of primary antibodies was achieved by incubation with HRP conjugated secondary antibody. Bands were visualized by chemiluminescent detection using Immobilon Forte Western HRP ECL substrate (Millipore, catalogue no. WBLUF0100) followed by exposure to hyperfilm ECL (GE/Amersham, catalogue no. 45001508)."}}}
{"molecule": "O=c1sn(-c2cccc3ccccc23)c(=O)n1Cc1ccccc1", "note": "[Tideglusib, 4-benzyl-2-(naphthalen-1-yl)-1,2,4-thiadiazolidine-3,5-dione]", "values": [{"measurement": "toxicity based on cell-titer blue testing", "setting": "patient CD4+ T cells", "result": "Neither tideglusib nor SB216763 induced toxicity"}, {"measurement": "activation of the AKT/mTOR pathway (phosphorylation of GSK-3β, AKT and TSC2)", "setting": "[1]; 15 minutes post-treatment", "result": "non-significant activation"}, {"measurement": "activating phosphorylation of p70S6K on T389", "setting": "[1]; 1 hour", "result": "significant phosphorylation values"}, {"measurement": "inhibiting phosphorylation of GSK-3β on S9", "setting": "[1]; 1 hour", "result": "significant phosphorylation values"}, {"measurement": "inhibiting phosphorylation of TSC2 on T1426", "setting": "[1]; 6 hours", "result": "statistically-relevant phosphorylation"}, {"measurement": "phosphorylation of AKT on S473", "setting": "[1]; 6 hours", "result": "statistically-relevant phosphorylation"}, {"measurement": "overall transcriptome changes, pathways (700 transcripts)", "setting": "[1]; after 1 and 6 hours", "result": "activation of the mitogen-activated protein kinase (MAPK), PI3K, Ras, Wnt and TGFβ pathways and deactivation of the Hedgehog, Notch and Janus kinases (JAK) and signal transducer and activator of transcription proteins (STAT)-pathways"}, {"measurement": "time of peak p65 nuclear translocation", "setting": "NF-κB (p65)", "result": 60, "unit": "min"}]}
